Measured values as given in patent publication US8871208B2, “11-β-hydroxysteroid dehydrogenase type 1 (11β-HSD1) inhibitors and uses thereof” (AbbVie Inc., priority 2009, dated 2014).
Like-named read-outs stand apart in the source and are kept apart here. Marks after values point to notes of the source that are not given here.

Key:
[1] = molecular target: T1, truncated human 11β-HSD-1 enzyme (24-287AA) (Homo sapiens, UniProt P28845); assay: Human 11β-HSD-1 enzymatic SPA assay; format: biochemical
T1 construct: truncated human 11β-HSD-1 enzyme (24-287AA); made in house; host or cells: E. coli (lysate)
T1 sequence (P28845 24-287): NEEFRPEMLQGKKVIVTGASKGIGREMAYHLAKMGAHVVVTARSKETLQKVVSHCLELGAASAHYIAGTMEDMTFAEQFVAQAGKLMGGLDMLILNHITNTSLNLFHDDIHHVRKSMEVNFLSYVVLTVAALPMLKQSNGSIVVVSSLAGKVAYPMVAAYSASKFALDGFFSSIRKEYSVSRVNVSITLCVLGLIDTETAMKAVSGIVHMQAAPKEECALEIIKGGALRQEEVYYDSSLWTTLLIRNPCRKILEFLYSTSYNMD
Protocol: (§1) The ability of test compounds to inhibit human 11β-HSD-1 enzymatic activity in vitro was evaluated in a Scintillation Proximity Assay (SPA). […] The reaction was stopped by adding a non-specific 11β-HSD inhibitor, 18β-glycyrrhetinic acid. The tritiated cortisol was captured by a mixture of an anti-cortisol monoclonal antibody and SPA beads coated with anti-mouse antibodies. The reaction plate was shaken at room temperature and the radioactivity bound to SPA beads was then measured on a β-scintillation counter. The 11β-HSD-1 assay was carried out in 96-well microtiter plates in a total volume of 220 μl. […] In order to drive the reaction in the forward direction, 1 mM G-6-P was also added. Solid compound was dissolved in DMSO to make a 10 mM stock followed by a subsequent 10-fold dilution with 3% DMSO in Tris/EDTA buffer (pH 7.4). 22 μl of titrated compounds was then added in triplicate to the substrate. Reactions were initiated by the addition of 10 μl of 0.1 mg/ml E. coli lysates overexpressing 11β-HSD-1 enzyme. After shaking and incubating plates for 30 minutes at room temperature, reactions were stopped by adding 10 μl of 1 mM glycyrrhetinic acid. The product, tritiated cortisol, was captured by adding 10 μl of 1 μM monoclonal anti-cortisol antibodies and 100 μl SPA beads coated with anti-mouse antibodies. After shaking for 30 minutes, plates were read on a liquid scintillation counter Topcount. Percent inhibition was calculated based on the background and the maximal signal. Wells that contained substrate without compound or enzyme were used as the background, while the wells that contained substrate and enzyme without any compound were considered as maximal signal. Percent of inhibition of each compound was calculated relative to the maximal signal and IC50 curves were generated. This assay was applied to 11β-HSD-2 as well, whereby tritiated cortisol and NAD^+ were used as substrate and cofactor, respectively.

human 11β-HSD-2 = molecular target: T2, human 11β-HSD-2 (Homo sapiens, UniProt P80365); assay: Human 11β-HSD-2 enzymatic SPA assay; format: biochemical; conditions: human enzyme, SPA
T2 sequence (P80365 1-405): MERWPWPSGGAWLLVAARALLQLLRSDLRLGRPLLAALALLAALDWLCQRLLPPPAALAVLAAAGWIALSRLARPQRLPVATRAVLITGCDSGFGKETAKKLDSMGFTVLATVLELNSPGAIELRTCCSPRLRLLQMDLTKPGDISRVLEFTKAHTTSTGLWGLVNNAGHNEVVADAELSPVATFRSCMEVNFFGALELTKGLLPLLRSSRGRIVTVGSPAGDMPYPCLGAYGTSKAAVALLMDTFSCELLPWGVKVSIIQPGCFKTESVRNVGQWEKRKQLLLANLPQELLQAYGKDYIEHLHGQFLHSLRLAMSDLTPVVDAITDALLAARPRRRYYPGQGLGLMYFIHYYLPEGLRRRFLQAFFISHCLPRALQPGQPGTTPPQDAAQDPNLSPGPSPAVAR
Protocol: as §1

Osteocalcin = assay: Mouse model of glucocorticoid-induced osteoporosis: plasma osteocalcin; format: in vivo; conditions: mice, diet with Compound B
Text: (§2) Purpose: The purpose of this experiment was to determine if inhibiting 11β-HSD-1 in mice results in protection from prednisolone-induced bone loss over a 28-day period, while maintaining the same anti-inflammatory efficacy against lipopolysaccharide(LPS)-induced TNFα.
(§3) Animals: Female Swiss Webster mice from Charles River Laboratories (CFW mice) were used in this study. Mice were 10 weeks old at the start of the study. Two identical prednisolone dose responses were run with a vehicle control (n=12), 5, 1.5, and 0.5 mg/kg dosed for 28 days (n=8 each), and 1.5 mg/kg dosed for 27 days (n=8, to determine if prednisolone needed to be on board to affect tumor necrosis factor-alpha(TNFα), procollagen type 1 N-terminal propeptide(P1NP), and Osteocalcin). […] The total number of animals used was 88.
(§4) Experimental Design: All animals were placed on the control diet (Research Diets Rodent Diet with 60 kcal % Fat: D12492i) upon arrival. […] Also on this day, animals were weighed for baselines and ear-tagged for identification. On day 1 of the study, all animals were injected intraperitoneally (i.p.) with 10 mg/kg of calcein (Sigma #C0875) in 2% sodium bicarbonate (Sigma #S6014, dissolved in deionized water). […] On day 27, 4 animals from each vehicle control group were challenged with 5 mg/kg of 11-dehydrocorticosterone (11-DHC [Steraloids #Q3690-000]) p.o., and plasma was collected 30 minutes later for corticosterone analysis by mass spec. […] Thirty minutes later, all groups were challenged with 0.1 mg/kg of LPS (Sigma #L4130) to induce TNFα. […] Right leg bones, left leg bones, and the spinal columns of all mice were collected and stored as follows:
Osteocalcin was measured using the Millipore Milliplex Mouse Osteocalcin Single-Plex Kit. The protocol was followed exactly as outlined in the kit. Samples were read on a BioRad Bio-Plex System, model # Luminex 100 and Bio-Plex Manager 4.1.1 software.

[2] = test system: P1NP (N-terminal propeptide of type I procollagen); assay: Mouse model of glucocorticoid-induced osteoporosis: plasma P1NP; format: in vivo; conditions: mice, diet with 873 mg Compound B/kg
Text: as §2, §3, §4
N-terminal propeptide of type I procollagen (PINP) was measured using the Rat/Mouse PINP EIA kit from Immunodiagnostic Systems. The protocol was followed as outlined in the kit, except for that sample dilutions were made in a separate plate instead of directly in the ELISA plate. Samples were read using a Molecular Devices Spectra Max 190 plate reader and Soft Max Pro 5.2 software.

[3] = test system: Trabecular bone at Femoral Metaphysis; assay: Mouse model of glucocorticoid-induced osteoporosis: femur histomorphometry; format: in vivo; conditions: mice, diet with Compound B
Text: as §2, §3, §4
Left leg bones were removed, cleaned, and cut identically to the right leg bones. However, left legs were separated at the knee joint by carefully teasing apart with a scalpel.
Femurs were fixed in 4% paraformaldehyde for 48 hours, and transferred to 30% sucrose for 24 hours before embedding in a CMC (carboxymethylcellulose) block. Blocks were frozen in liquid nitrogen-cooled hexanes (−60° C. or colder) for 3-5 minutes, and stored at −80° C. Femurs were then sectioned on a cryomicrotome.
Bone was measured from 8-10 fields per femur, with each field being 400×500 microns in size. All dynamic measurement calculations were made from scoring the second and third fluorochrome labels, which were administered 11 days apart. OsteoMeasure software was used to obtain all values.
Bone formation rate/bone volume (BFR/BV) refers to the volume of new bone formed per unit of time, and is measured as a percent per day. BFR is the most significant measure of bone formation.
Mineral apposition rate (MAR) refers to the distance between two fluorochrome labels divided by the number of days between label administration, and is indicative of osteoblastic activity.
Double labeled surface/bone surface (dLS/BS) refers to the percentage of trabecular bone surface which is double-labeled, and is another readout indicative of bone formation.

TNFα = assay: Mouse model of glucocorticoid-induced osteoporosis: LPS-induced TNFα; format: in vivo; conditions: mice, LPS 0.1 mg/kg challenge, diet with Compound B
Text: as §2, §3, §4
TNFα was measured using the Mouse […] Quantikine ELISA kit from R&D Systems. The protocol was followed as outlined in the kit. Samples were read using a Molecular Devices Spectra Max 250 plate reader and Soft Max Pro 4.8 software.

insulin sensitivity = conditions: humans; cited from earlier work
[4] = test system: markers of bone resorption; conditions: bone samples, healthy human volunteers, orally dosed; cited from earlier work
[5] = test system: inflammation, tissue destruction, bone erosion; conditions: animal models of RA; cited from earlier work
[6] = prednisolone 5 mg/kg, p < 0.05 vs. (−) inhibitor
[7] = prednisolone 0.5 mg/kg, p < 0.05 vs. vehicle control

NC(=O)OC12CC3CC(C1)C(NC(=O)CN1CCN(c4ccc(C(F)(F)F)cn4)CC1)C(C3)C2 (centres unmarked) [(E)-4-[({4-[5-(trifluoromethyl)pyridin-2-yl]piperazin-1-yl}acetyl)amino]-1-adamantyl carbamate]
IC50 ([1]; human enzyme, SPA): 150 nM | IC50 (human 11β-HSD-2): > 10 µM

O=C(O)C12CC3CC(C1)C(NC(=O)C1(c4ccc(Cl)cc4)CCC1)C(C3)C2 (centres unmarked) [(E)-4-{[1-(4-chloro-phenyl)-cyclobutanecarbonyl]-amino}-adamantane-1-carboxylic acid]
IC50 ([1]; human enzyme, SPA): 43 nM | IC50 (human 11β-HSD-2): > 10 µM

CC(C)(Oc1ccc(O)cc1)C(=O)N[C@@H]1[C@@H]2C[C@@H]3C[C@H]1C[C@@](C(N)=O)(C3)C2 [(E)-4-{[2-(4-hydroxyphenoxy)-2-methylpropanoyl]amino}adamantane-1-carboxamide]
IC50 ([1]; human enzyme, SPA): 18 nM | IC50 (human 11β-HSD-2): 35 µM

CC(C)(C(=O)NC1C2CC3CC1CC(C(N)=O)(C3)C2)N1CCN(c2cnccn2)CC1 (centres unmarked) [(E)-4-{[2-methyl-2-(4-pyrazin-2-ylpiperazin-1-yl)propanoyl]amino}adamantane-1-carboxamide]
IC50 ([1]; human enzyme, SPA): 35 nM | IC50 (human 11β-HSD-2): > 30 µM

CC(C)(C(=O)N[C@@H]1[C@@H]2C[C@@H]3C[C@H]1C[C@@](C(N)=O)(C3)C2)N1CCN(c2ccccn2)CC1 [(E)-4-{[2-methyl-2-(4-pyridin-2-ylpiperazin-1-yl)propanoyl]amino}adamantane-1-carboxamide]
IC50 ([1]; human enzyme, SPA): 37 nM | IC50 (human 11β-HSD-2): > 30 µM

CC(C)(Oc1ccc(F)cc1Cl)C(=O)NC1C2CC3CC1CC(S(C)(=O)=O)(C3)C2 (centres unmarked) [Compound B, 2-(2-chloro-4-fluorophenoxy)-2-methyl-N-[(E)-5-(methylsulfonyl)-2-adamantyl]propanamide]
% Inhibition of Osteocalcin, (+) Inhibitor (Osteocalcin; prednisolone 0.5 mg/kg): 18% | % Inhibition of Osteocalcin, (+) Inhibitor (Osteocalcin; [6]): 28%* | % Inhibition of P1NP, (+) Inhibitor ([2]; prednisolone 0.5 mg/kg p.o. daily 28 days): 25% | % Inhibition of P1NP, (+) Inhibitor ([2]; prednisolone […] p.o. daily 28 days): 28% | % Inhibition of MAR, (+) Inhibitor ([3]; prednisolone 0.5 mg/kg): 9% | % Increase in BFR/BV, (+) Inhibitor [3, 7]: 47%^# | % Increase in dLS/BS, (+) Inhibitor [3, 7]: 22%^# | % Inhibition of MAR, (+) Inhibitor ([3]; prednisolone 5 mg/kg): 23% | % Increase in BFR/BV, (+) Inhibitor [3, 6]: 30%* | % Increase in dLS/BS, (+) Inhibitor ([3]; prednisolone 5 mg/kg, p < 0.05 vs. vehicle control): 46%^# | % Inhibition of TNFα, (+) Inhibitor (TNFα; prednisolone 0.5 mg/kg): 80% | % Inhibition of TNFα, (+) Inhibitor (TNFα; prednisolone 5 mg/kg): 98% | % Inhibition of TNFα, (+) Inhibitor (TNFα; prednisolone […]): 94%

CC(C)(Oc1ccc(Cl)cc1)C(=O)N[C@@H]1[C@@H]2C[C@@H]3C[C@H]1C[C@@](CC(N)=O)(C3)C2 [N-[(E)-5-(2-amino-2-oxoethyl)-2-adamantyl]-2-(4-chlorophenoxy)-2-methylpropanamide]
IC50 ([1]; human enzyme, SPA): 43 nM | IC50 (human 11β-HSD-2): 21 µM

CC(C)(Oc1ccc(F)cc1Cl)C(=O)N[C@@H]1[C@@H]2C[C@@H]3C[C@H]1C[C@@](S(N)(=O)=O)(C3)C2 [N-[(E)-5-(aminosulfonyl)-2-adamantyl]-2-(2-chloro-4-fluorophenoxy)-2-methyl-propanamide]
IC50 ([1]; human enzyme, SPA): 89 nM | IC50 (human 11β-HSD-2): > 100 µM

O=C(CN1CCN(c2ccc(C(F)(F)F)cn2)CC1)NC1C2CC3CC1CC(F)(C3)C2 (centres unmarked) [N-[(E)-5-fluoro-2-adamantyl]-2-{4-[5-(trifluoromethyl)pyridin-2-yl]piperazin-1-yl}acetamide]
IC50 [1]: 140 nM | IC50 (human 11β-HSD-2): > 10 µM

CC(C(=O)NC1C2CC3CC1CC(NS(C)(=O)=O)(C3)C2)N1CCN(c2ccc(C(F)(F)F)cn2)CC1 (centres unmarked) [N-{(E)-5-[(methylsulfonyl)amino]-2-adamantyl}-2-{4-[5-(trifluoromethyl)pyridin-2-yl]piperazin-1-yl}propanamide]
IC50 ([1]; human enzyme, SPA): 67 nM | IC50 (human 11β-HSD-2): > 30 µM

O=C(CN1CCN(c2ccc(C(F)(F)F)cn2)CC1)N[C@H]1[C@@H]2C[C@@H]3C[C@H]1C[C@@](F)(C3)C2 [N—[(Z)-5-fluoro-2-adamantyl]-2-{4-[5-(trifluoromethyl)pyridin-2-yl]piperazin-1-yl}acetamide]
IC50 [1]: 82 nM | IC50 (human 11β-HSD-2): > 10 µM

CC1(C)[C@@H](OC(=O)CCC(=O)O)CC[C@]2(C)[C@H]3C(=O)C=C4[C@@H]5C[C@@](C)(C(=O)O)CC[C@]5(C)CC[C@@]4(C)[C@]3(C)CC[C@@H]12 [carbenoxolone]
insulin sensitivity (insulin sensitivity): improves insulin sensitivity | markers of bone resorption [4]: significant decrease in markers of bone resorption

CC1(C)[C@@H](O)CC[C@]2(C)[C@H]3C(=O)C=C4[C@@H]5C[C@@](C)(C(=O)O)CC[C@]5(C)CC[C@@]4(C)[C@]3(C)CC[C@@H]12 [glycyrrhetinic acid]
effect on inflammation, tissue destruction and bone erosion [5]: reduced inflammation and tissue destruction as well as bone erosion

CC(C)(C(=O)N[C@@H]1[C@@H]2C[C@@H]3C[C@H]1C[C@@](CC(=O)O)(C3)C2)N1CCN(c2ccc(C(F)(F)F)cn2)CC1 [{(E)-4-[(2-methyl-2-{4-[5-(trifluoromethyl)pyridin-2-yl]piperazin-1-yl}propanoyl)amino]-1-adamantyl}acetic acid]
IC50 ([1]; human enzyme, SPA): 80 nM | IC50 (human 11β-HSD-2): > 10 µM
